Test results published in US4528289A, “Corynantheine derivates, processes for their preparation, and their use” (Dr. Willmar Schwabe GmbH & Co., priority 1982, dated 1985).

Tests used:
[1] = system: systolic blood pressure of spontaneously hypertonic rats; assay: chronological course of blood pressure decrease in spontaneously hypertonic rats; format: in vivo, rat
Source text: (§1) The blood pressure-lowering action of the compound THCN according to the present invention and of DHCN was investigated on spontaneously hypertonic rats after oral administration and compared with that of ajmalicine. The method thereby used for the measurement of the systolic blood pressure and of the heart rate on rats is described in Arzneimittel-Forschung, 18, 1285-1287/1968. Before commencement of the experiments, the animals were familiarised with the measurement procedure.
(§2) In a further series of experiments, the chronological course of the blood pressure lowering was investigated. For this purpose, spontaneously hypertonic rats were treated with 10 mg./kg. DHCN and with 5 or 10 mg./kg. THCN per os and in each case 6 or 12 animals of the treated group were measured at definite times after the treatment.

[2] = system: systolic blood pressure of spontaneously hypertonic rats; assay: systolic blood pressure of spontaneously hypertonic rats after oral administration; format: in vivo, rat; conditions: 2 h, tetrahydrocorynantheine
Source text: as §1
(§3) In a first series of experiments, the systolic blood pressure and the heart rate were investigated 2 hours after the oral administration of the test substances in the form of their hydrochlorides. The substances were suspended in 0.2% agar and administered in a volume of 10 ml./kg. It follows therefrom that all three substances lower the blood pressure in a dosage-dependent manner.

[3] = system: aconitine-induced arrythmias; assay: protection against aconitine-induced arrhythmias in urethane-narcotised rats, i.v.; format: in vivo; conditions: 2 to 5 mg/kg (THCN)
Source text: (§4) The antiarrhythmic effectiveness of DHCN and THCN was investigated on mice and rats.

[4] = system: "head twitch" syndrome caused by 5-hydroxytryptophane; assay: inhibition of "head twitch" syndrome caused by 5-hydroxytryptophane on mice; format: in vivo; conditions: concluded from head twitch test
[5] = system: heart rate of spontaneously hypertonic rats; assay: chronological course of heart rate of spontaneously hypertonic rats; format: in vivo, rat; set-up: heart rate at time t: unit not given here
Source text: as §1, §2

[6] = system: stereotypy brought about by apomorphine; assay: potentiation of apomorphine stereotypy in mice; format: in vivo; conditions: oral, 10 to 20 mg/kg
mice [7] = assay: sedating action on mice after oral administration; format: in vivo; conditions: 5 to 20 mg/kg, dosage-dependent
mice [8] = assay: body temperature-lowering action on mice after oral administration; format: in vivo; conditions: 5 to 20 mg/kg, dosage-dependent
[9] = system: heart rate of spontaneously hypertonic rats; assay: heart rate of spontaneously hypertonic rats after oral administration; format: in vivo, rat; conditions: 2 h, tetrahydrocorynantheine
Source text: as §1, §3

CHCl3 arrhythmia = assay: inhibition of CHCl3 arrhythmia on mice, i.p.; format: in vivo
Source text: as §4

[10] = acute toxicity, LD50 (Litchfield and Wilcoxon) on mice; format: in vivo; conditions: mouse, in vivo, mice
Source text: (§5) The toxicity of the compounds according to the present invention can be seen from the LD50 values given in the following Table 8 for intravenous, intraperitoneal and oral administration.

mice [11] = assay: as above; format: in vivo; conditions: i.v., i.p. and oral LD50, mice
Source text: as §5

[12] = stability towards acids and other agents; format: physicochemical
[13] = system: systolic blood pressure of spontaneously hypertonic rats; assay: regression analysis of the dosage-activity relationship (blood pressure lowering); format: in vivo, rat; conditions: compared with DHCN and ajmalicine
Source text: as §1, §3
The calculation of the regression lines gives, in all three cases, a statistically significant correlation between dosage and degree of blood pressure lowering (cf. the following Table 4). For ajmalicine, in the case of a dosage of 56 mg./kg., the lowering reached a maximum of about 18%, which could not be exceeded with dosages of up to 100 mg./kg.

CC[C@H]1CN2CCc3c([nH]c4ccccc34)[C@@H]2C[C@@H]1C(COC)C(=O)OC (some centres unmarked) [THCN, tetrahydrocorynantheine]
percentage decrease of blood pressure ([1]; 5 mg/kg p.o., 10 min.): 11.1% | percentage decrease of blood pressure ([1]; 5 mg/kg p.o., 20 min.): 13.8% | percentage decrease of blood pressure ([1]; 5 mg/kg p.o., 40 min.): 12.8% | percentage decrease of blood pressure ([1]; 5 mg/kg p.o., 80 min.): 13.8% | percentage decrease of blood pressure ([1]; 5 mg/kg p.o., 2 h.): 8.1% | percentage decrease of blood pressure ([1]; 5 mg/kg p.o., 4 h.): -0.2% | percentage decrease of blood pressure ([1]; 5 mg/kg p.o., 6 h.): 4.0% | percentage decrease of blood pressure ([1]; 10 mg/kg p.o., 10 min.): 13.5% | percentage decrease of blood pressure ([1]; 10 mg/kg p.o., 20 min.): 29.3% | percentage decrease of blood pressure ([1]; 10 mg/kg p.o., 40 min.): 27.8% | percentage decrease of blood pressure ([1]; 10 mg/kg p.o., 80 min.): 23.0% | percentage decrease of blood pressure ([1]; 10 mg/kg p.o., 2 h.): 14.4% | percentage decrease of blood pressure ([1]; 10 mg/kg p.o., 4 h.): 14.0% | percentage decrease of blood pressure ([1]; 10 mg/kg p.o., 6 h.): 15.9% | blood pressure lowering action compared (in words) ([1]; DHCN 10 mg/kg vs THCN 5 mg/kg p.o.): the same action | time of maximum blood pressure lowering ([1]; DHCN 10 mg/kg, THCN 5 mg/kg p.o.): about 40 minutes | blood pressure after the maximum (in words) ([1]; DHCN 10 mg/kg, THCN 5 mg/kg p.o., after about 40 minutes): the blood pressure again increases to the initial value | blood pressure lowering action (in words) ([1]; THCN 10 mg/kg p.o.): a stronger action | time of maximum blood pressure lowering ([1]; THCN 10 mg/kg p.o.): 20 min | maximum blood pressure lowering ([1]; THCN 10 mg/kg p.o., 20 minutes after administration): 30% | blood pressure after 6 hours (in words) ([1]; THCN 10 mg/kg p.o., 6 hours): still distinctly below the initial value | blood pressure-lowering action compared with ajmalicine (in words) ([1]; oral administration): clearly stronger and longer-lasting blood pressure-lowering action | systolic blood pressure, subsequent value ([2]; 5 mg/kg p.o.): 178 ± 4 mm Hg | systolic blood pressure, Δ ([2]; 5 mg/kg p.o.): -15 ± 3 mm Hg | systolic blood pressure, Δ % ([2]; 5 mg/kg p.o.): -7.7 ± 1.8% | systolic blood pressure, subsequent value ([2]; 10 mg/kg p.o.): 168 ± 5 mm Hg | systolic blood pressure, Δ ([2]; 10 mg/kg p.o.): -28 ± 6 mm Hg | systolic blood pressure, Δ % ([2]; 10 mg/kg p.o.): -14.3 ± 4.7% | systolic blood pressure, subsequent value ([2]; 18 mg/kg p.o.): 165 ± 13 mm Hg | systolic blood pressure, Δ ([2]; 18 mg/kg p.o.): -33 ± 11 mm Hg | systolic blood pressure, Δ % ([2]; 18 mg/kg p.o.): -16.5 ± 5.8% | systolic blood pressure, subsequent value ([2]; 30 mg/kg p.o.): 146 ± 5 mm Hg | systolic blood pressure, Δ ([2]; 30 mg/kg p.o.): -43 ± 5 mm Hg | systolic blood pressure, Δ % ([2]; 30 mg/kg p.o.): -21.9 ± 3.9% | systolic blood pressure, subsequent value ([2]; 40 mg/kg p.o.): 132 ± 9 mm Hg | systolic blood pressure, Δ ([2]; 40 mg/kg p.o.): -74 ± 10 mm Hg | systolic blood pressure, Δ % ([2]; 40 mg/kg p.o.): -35.7 ± 4.7% | antiarrhythmic effectiveness, aconitine-induced arrythmias (in words) [3]: protects against aconitine-induced arrythmias | central antiserotoninergic action (in words) [4]: central antiserotoninergic action | heart rate at time t ([5]; 5 mg/kg p.o., 10 min.): 504 | heart rate at time t ([5]; 5 mg/kg p.o., 20 min.): 492 | heart rate at time t ([5]; 5 mg/kg p.o., 40 min.): 499 | heart rate at time t ([5]; 5 mg/kg p.o., 80 min.): 503 | heart rate at time t ([5]; 5 mg/kg p.o., 2 h.): 508 | heart rate at time t ([5]; 5 mg/kg p.o., 4 h.): 502 | heart rate at time t ([5]; 5 mg/kg p.o., 6 h.): 489 | heart rate at time t ([5]; 10 mg/kg p.o., 10 min.): 519 | heart rate at time t ([5]; 10 mg/kg p.o., 20 min.): 518 | heart rate at time t ([5]; 10 mg/kg p.o., 40 min.): 499 | heart rate at time t ([5]; 10 mg/kg p.o., 80 min.): 520 | heart rate at time t ([5]; 10 mg/kg p.o., 2 h.): 519 | heart rate at time t ([5]; 10 mg/kg p.o., 4 h.): 519 | heart rate at time t ([5]; 10 mg/kg p.o., 6 h.): 503 | heart rate change (in words) ([5]; DHCN 10 mg/kg, THCN 10 mg/kg, on the border of statistical significance): an increase is to be observed | heart rate change (in words) ([5]; THCN 5 mg/kg): does not change | apomorphine stereotypy (in words) [6]: potentiated the stereotypy | central dopaminergic-stimulating property (in words) [6]: central dopaminergic-stimulating property | sedating action (in words) (mice [7]): sedating | body temperature-lowering action (in words) (mice [8]): body temperature-lowering action | heart rate, subsequent value ([9]; 5 mg/kg p.o.): 508 ± 7 beats/min. | heart rate, Δ ([9]; 5 mg/kg p.o.): 6 ± 12 beats/min. | heart rate, Δ % ([9]; 5 mg/kg p.o.): 1.2 ± 7.1% | heart rate, subsequent value ([9]; 10 mg/kg p.o.): 519 ± 9 beats/min. | heart rate, Δ ([9]; 10 mg/kg p.o.): 21 ± 11 beats/min. | heart rate, Δ % ([9]; 10 mg/kg p.o.): 4.2 ± 3.3% | heart rate, subsequent value ([9]; 18 mg/kg p.o.): 495 ± 6 beats/min. | heart rate, Δ ([9]; 18 mg/kg p.o.): 13 ± 12 beats/min. | heart rate, Δ % ([9]; 18 mg/kg p.o.): 3.3 ± 2.8% | heart rate, subsequent value ([9]; 30 mg/kg p.o.): 493 ± 10 beats/min. | heart rate, Δ ([9]; 30 mg/kg p.o.): 22 ± 27 beats/min. | heart rate, Δ % ([9]; 30 mg/kg p.o.): 4.7 ± 6.6% | heart rate, subsequent value ([9]; 40 mg/kg p.o.): 472 ± 14 beats/min. | heart rate, Δ ([9]; 40 mg/kg p.o.): -1 ± 29 beats/min. | heart rate, Δ % ([9]; 40 mg/kg p.o.): 1.0 ± 6.6% | antiarrhythmic effectiveness, chloroform arrythmias (in words) (CHCl3 arrhythmia): dosage-dependently inhibited the arrythmias caused by chloroform | inhibition in % of CHCl3 arrhythmia (CHCl3 arrhythmia; 10 mg/kg): 10% | inhibition in % of CHCl3 arrhythmia (CHCl3 arrhythmia; 15 mg/kg): 60% | inhibition in % of CHCl3 arrhythmia (CHCl3 arrhythmia; 25 mg/kg): 90% | LD50 ([10]; ip): 133 mg/kg | LD50 ([10]; iv): 14.1 mg/kg | LD50 ([10]; po): 283 mg/kg | toxicities compared (in words) (mice [11]): almost the same | stability compared with dihydrocorynantheine (in words) [12]: substantially more stable than dihydrocorynantheine | stability towards acids and other agents (in words) [12]: astonishingly stable towards acids and other agents | dosage activity curve (in words) [13]: steeper | strength of action (in words) ([13]; higher dosages): stronger in higher dosages
